One may read the EC50 as the concentration that produces a half-maximal response.

Data on two substances can be found in patent publication US20070037219A1, “Rhesus monkey bombesin receptor subtype-3 (brs-3), nucleotides encoding same, and uses thereof” (priority 2003, published 2007).

The subject of assay [1] is rhesus monkey BRS3 receptor. The experiment in a line: Functional expression of rhesus monkey BRS3 in aequorin-expressing reporter cell line 293-AEQ17 (luminescence, fractional response). As to conditions: 293-AEQ17 cells transfected with rhesus monkey BRS3 plasmid, aequorin light emission, read-out: EC50 value for activation of the rhesus monkey BRS3 receptor. The format is cell-based. The procedure: Measurement of rhesus monkey BRS3 receptor expression in the aequorin-expressing stable reporter cell line 293-AEQ17 (Button et al., 1993. Cell Calcium 14: 663-671) was performed using a Luminoskan RT luminometer (Labsystems Inc., Gaithersburg, Md.) controlled by custom software written for a Macintosh PowerPC 6100. 293-AEQ17 cells (8×10^5 cells plated 18 hours before transfection in a T75 flask) were transfected with 22 μg of rhesus monkey BRS3 receptor plasmid DNA: 264 μg lipofectamine.
Following approximately 40 hours of expression, the apo-aequorin in the cells was charged for 4 hours with coelenterazine (10 μM) under reducing conditions (300 μM reduced glutathione) in ECB buffer (140 mM NaCl, 20 mM KCl, 20 mM HEPES-NaOH [pH=7.4], 5 MM glucose, 1 mM MgCl2, 1 mM CaCl2, 0.1 mg/ml bovine serum albumin). The cells were harvested, washed once in ECB medium and resuspended to 500,000 cells/ml. 100 μl of cell suspension (corresponding to 5×10^4 cells) was then injected into the test plate containing the BRS3 agonist peptide D-Tyr6-betaAla11-Phe13-Nle14]bombesin6-14, and the integrated light emission was recorded over 30 seconds, in 0.5-second units. 20 μL of lysis buffer (0.1% final Triton X-100 concentration) was then injected and the integrated light emission recorded over 10 seconds, in 0.5-second units. […]

Assay [2] concerns all three human bombesin receptor subtypes. The settings on record: literature statement, Pradhan et al., Eur. J. Pharmacol. 343: 275-87 (1998); cited from earlier work.
The target of assay [3] is rhesus monkey bombesin receptor subtype-3 (rhesus monkey) (UniProt Q6H2Y3). As to the kind of experiment: cell-based or functional assay.
Sequence of rhesus monkey bombesin receptor subtype-3 (rhesus monkey) (Q6H2Y3 whole entry): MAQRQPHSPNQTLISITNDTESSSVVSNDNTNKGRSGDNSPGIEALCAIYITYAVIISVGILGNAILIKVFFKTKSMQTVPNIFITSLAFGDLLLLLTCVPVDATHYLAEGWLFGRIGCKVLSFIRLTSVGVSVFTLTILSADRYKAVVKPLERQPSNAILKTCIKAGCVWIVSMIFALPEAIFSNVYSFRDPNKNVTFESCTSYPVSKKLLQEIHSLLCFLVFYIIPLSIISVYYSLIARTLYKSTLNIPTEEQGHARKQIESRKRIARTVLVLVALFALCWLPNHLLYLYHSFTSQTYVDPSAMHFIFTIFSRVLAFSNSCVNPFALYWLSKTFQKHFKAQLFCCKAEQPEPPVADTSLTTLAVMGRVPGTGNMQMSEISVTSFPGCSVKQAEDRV

Sequence of rhesus monkey BRS3 receptor (as listed by the source): as the sequence (Q6H2Y3 whole entry) above

Turning to “[D-Tyr6-betaAlal 11-Phe13-Nle14] bombesin(6-14) [dYB]”, the EC50 in assay [1] was found to be 10 nM. Besides, the “affinity for all three human bombesin receptor subtypes” value in assay [2] is reported as “high affinity”.

Substance “[D-Tyr6-betaAla11-Phe13-Nle14]bombesin(6-14) (peptide)” had an EC50 value for activation (aequorin luminescence, fractional response, in transfected 293-AEQ17 cells) in assay [3] of 10 nM.
